Experimental data taken from patent publication US12378320B2, “Methods for treating pancreatitis” (Cold Spring Harbor Laboratory, priority 2018, dated 2025).

How the values were obtained:
[1] = test system: C57Bl/6J mice; assay: Cerulein model of acute pancreatitis, immune cell types by flow cytometry; format: in vivo, mouse; conditions: for immune cell type representation in the spleen or lymph nodes / immune cells in the pancreas following induction of pancreatitis: flow cytometry
Experimental: (§1) KPC mice (Kras^+/LSL-G12D; Trp53^+/R172H; Pdx1-Cre) have been described previously (Hingorani S R, et al., Cancer Cell. 2003; 4(6):437-50; Hingorani S R, et al., Cancer Cell. 2005; 7(5):469-83) and were backcrossed onto the C57Bl/6J background (The Jackson Laboratory, strain 000664). All animal experiments were conducted in accordance with procedures approved by the IACUC at Cold Spring Harbor Laboratory. Mice were enrolled onto experimental studies between 6 and 8 weeks of age. Mice were administered Doxycycline through drinking water (0.5-2 mg/ml) supplemented with 10 mg/ml Sucrose for study durations up to one week. Doxycycline was administered through chow for experimental studies longer than one week, which is designed to deliver 2-3 mg of doxycycline per day based on the consumption of 4-5 g/day per mouse (Harlan Teklad, dietTD.01306, Doxycycline 625 mg). EdU (300 μg, Santa Cruz) was intraperitoneally administered bi-daily for three consecutive days. Cerulein was administered in 8 hourly doses of 200 μl (10 μg/ml) intraperitoneally for 48 hours and C57Bl/6J mice were allowed to recover for 24 or 72 hours. Blood glucose levels were measured using the ACCU-CHECK Nano (Roche) on the 414 lateral saphenous vein.
Spleens and lymph nodes were mechanically dissociated, homogenized, and passed through a nylon cell strainer (BD Falcon) in FACS buffer (eBioscience). Pancreas were mechanically dissociated and digested with 0.4 mg/mL liberase, 0.05 mg/mL collagenase D, and 0.1 mg/mL DNase I (Roche) in DMEM (Gibco) supplemented with 10% FCS at 37° C. for 30 min and suspensions were passed through a nylon cell strainer.
Staining was performed by incubating cells on a plate shaker, for 15 min at 4° C., with antibodies in FACS buffer (eBioscience). Multicolor flow cytometric analyses were performed using a LSR Fortessa cytometer (BD Biosciences). Gating strategies for all flow cytometric experiments are further described below.

[2] = test system: C^PDX;R^LSL;F mice; assay: CA19-9 mediated pancreatitis in Dox-treated C^PDX;R^LSL;F mice (H&E, serum amylase and lipase, pEGFR IHC); format: in vivo, mouse
Experimental: All animal experiments were conducted in accordance with procedures approved by the IACUC at Cold Spring Harbor Laboratory. Mice were enrolled onto experimental studies between 6 and 8 weeks of age. Mice were administered Doxycycline through drinking water (0.5-2 mg/ml) supplemented with 10 mg/ml Sucrose for study durations up to one week. […] EdU (300 μg, Santa Cruz) was intraperitoneally administered bi-daily for three consecutive days. Cerulein was administered in 8 hourly doses of 200 μl (10 μg/ml) intraperitoneally for 48 hours and C57Bl/6J mice were allowed to recover for 24 or 72 hours.
Formalin-fixed, paraffin-embedded blocks were sectioned and de-paraffinized. Antigen retrieval was performed in Citrate buffer for 6 minutes in a pressure cooker unless otherwise specified. […] The slides were then rinsed in tap water and transferred to the Cadenza system. Slides were blocked in 3% BSA in TBST for one hour at room temperature and incubated in primary antibody overnight. Slides were washed three times in TBST, then incubated in horse radish peroxidase-conjugated secondary antibody for one hour at room temperature. The slides were washed three times in TBST and disassembled from the Cadenza system. ImmPACT DAB (Vector) was incubated for 1-10 minutes followed by a water wash and incubation in Hematoxylin counterstain. The slides were then dehydrated and coverslipped in cytoseal 60.
Slides were scanned using an Aperio CS2 scanner (Leica) and the total occupied pixel area was calculated in Imagescope (Leica). Affected pancreatitis areas on H&E stained slides were manually annotated and the uninvolved and affected areas were measured. Pancreatitis areas were defined by the presence of infiltrating lymphocytes, acinar intralobular swelling, acinar to ductal metaplasia, fibrosis and fat cell replacement. The number of Ki67-positive nuclei were counted manually in five representative high-powered fields from least four animals per group.
Amylase and Lipase levels in plasma (lithium heparin, BD biosciences) was measured by IDEXX Pathology services. CA19-9 levels were measured using the human cancer biomarker assay (EMD Millipore) on the MagPIX multiplex ELISA platform (Luminex). Blood glucose levels were measured using an Accu-Chek Nano monitor (Roche) on the lateral saphenous vein. […] The CA19-9 coated plates were washed in 0.05% Tween 20 in PBS and blocked in 1% BSA in wash buffer before incubation 10 μl of mouse plasma in a final volume of 100 μl of blocking buffer

[3] = test system: C57Bl/6J mice; format: in vivo; conditions: Sucrose or Dox Sucrose, Vehicle or Erlotinib
Experimental: as §1, with “EdU (300 μg, Santa Cruz) was intraperitoneally administered bi-daily for three consecutive days. Cerulein was administered in 8 hourly doses of 200 μl (10 μg/ml) intraperitoneally for 48 hours and C57Bl/6J mice were allowed to recover for 24 or 72 hours.” left out
Amylase and Lipase levels in plasma (lithium heparin, BD biosciences) was measured by IDEXX Pathology services. CA19-9 levels were measured using the human cancer biomarker assay (EMD Millipore) on the MagPIX multiplex ELISA platform (Luminex). Blood glucose levels were measured using an Accu-Chek Nano monitor (Roche) on the lateral saphenous vein. […]

Cerulein
immune cell type representation in the spleen or lymph nodes [1]: without change
immune cells in the pancreas following induction of pancreatitis [1]: influx of inflammatory monocytes and macrophages
immune cell type representation in the spleen or lymph nodes ([1]; listed as cerulein): without any change
immune cells in the pancreas following induction of pancreatitis ([1]; listed as cerulein): treatment-dependent influx of inflammatory monocytes and macrophages
recruitment of T- or B-cells ([1]; time points examined 1-3 days): Neither model exhibited recruitment

C#Cc1cccc(Nc2ncnc3cc(OCCOC)c(OCCOC)cc23)c1 [Erlotinib]
ability to substitute for anti-CA19-9 therapy ([2]; Erlotinib 24 hours prior to the induction of pancreatitis): unable to substitute
weight loss ([2]; Erlotinib 24 hours prior to the induction of pancreatitis, humane end point prior to study completion): more than 20%
pancreatic atrophy at necropsy ([2]; Erlotinib plus Dox): evident
vacuolization of the acinar compartment by histology ([2]; Erlotinib plus Dox): apparent
relation of the effects to Erlotinib toxicity in normal mice [3]: unrelated to toxicity
